Data as given in ChEMBL document CHEMBL3046319, “PCR-RFLP detection of the E198A mutation conferring resistance to benzimidazoles in field isolates of Monilinia laxa from Greece” (Crop Prot, 2012).
Values after ≈ are worked out from the molar mass of the structure shown. Active and inactive are the calls of the source. The calls are words filed in the database; no cut-off is given here.

How the values were obtained:
[1] = tested on: Monilinia laxa; assay: Fungicidal activity against Monilinia laxa isolate B1 assessed as reduction in mycelial growth rate at 25 degC after 4 days; assay type: functional, organism-based; settings: isolate B1, 96 h
[2] = tested on: Monilinia laxa; assay: Fungicidal activity against Monilinia laxa isolate MLK12 assessed as reduction in mycelial growth rate at 1 to 10 ug/ml at 31 degC after 5 days; assay type: functional, organism-based
[3] = tested on: Monilinia laxa; assay: Fungicidal activity against Monilinia laxa isolate MLK7 assessed as reduction in mycelial growth rate at 1 to 10 ug/ml at 31 degC after 5 days; assay type: functional, organism-based
[4] = tested on: Monilinia laxa; assay: Fungicidal activity against Monilinia laxa isolate MLK2 assessed as reduction in mycelial growth rate at 1 to 10 ug/ml at 31 degC after 5 days; assay type: functional, organism-based
[5] = tested on: Monilinia laxa; assay: Fungicidal activity against Monilinia laxa isolate MLKS2 assessed as reduction in mycelial growth rate at 1 to 10 ug/ml at 31 degC after 5 days; assay type: functional, organism-based
[6] = tested on: Monilinia laxa; assay: Fungicidal activity against Monilinia laxa isolate MLG5 assessed as reduction in mycelial growth rate at 1 to 10 ug/ml at 31 degC after 5 days; assay type: functional, organism-based
[7] = tested on: Monilinia laxa; assay: Fungicidal activity against Monilinia laxa isolate MLG4 assessed as reduction in mycelial growth rate at 1 to 10 ug/ml at 31 degC after 5 days; assay type: functional, organism-based
[8] = tested on: Monilinia laxa; assay: Fungicidal activity against Monilinia laxa isolate MLC6 assessed as reduction in mycelial growth rate at 1 to 10 ug/ml at 31 degC after 5 days; assay type: functional, organism-based
[9] = tested on: Monilinia laxa; assay: Fungicidal activity against Monilinia laxa isolate MLC4 assessed as reduction in mycelial growth rate at 1 to 10 ug/ml at 31 degC after 5 days; assay type: functional, organism-based
[10] = tested on: Monilinia laxa; assay: Fungicidal activity against Monilinia laxa isolate MLC3 assessed as reduction in mycelial growth rate at 1 to 10 ug/ml at 31 degC after 5 days; assay type: functional, organism-based
[11] = tested on: Monilinia laxa; assay: Fungicidal activity against Monilinia laxa isolate MLC2 assessed as reduction in mycelial growth rate at 1 to 10 ug/ml at 31 degC after 5 days; assay type: functional, organism-based
[12] = tested on: Monilinia laxa; assay: Fungicidal activity against Monilinia laxa isolate MLX5 assessed as mean number of conidia produced in the colony at 25 degC after 12 days by haemocytometer; assay type: functional
[13] = tested on: Monilinia laxa; assay: Fungicidal activity against Monilinia laxa isolate MLC2 assessed as mean mycelial colony diameter at 25 degC after 4 days; assay type: functional
[14] = tested on: Monilinia laxa; assay: Fungicidal activity against Monilinia laxa isolate MLK1 assessed as mycelial growth at 1 ug/ml at 25 degC after 4 days; assay type: functional
[15] = tested on: Monilinia laxa; assay: Fungicidal activity against Monilinia laxa isolate KX4 assessed as reduction in mycelial growth rate at 1 to 10 ug/ml at 28 degC after 8 days; assay type: functional, organism-based
[16] = tested on: Monilinia laxa; assay: Fungicidal activity against Monilinia laxa isolate MLX1 assessed as reduction in mycelial growth rate at 1 to 10 ug/ml at 28 degC after 8 days; assay type: functional, organism-based
[17] = tested on: Monilinia laxa; assay: Fungicidal activity against Monilinia laxa isolate MLP4 assessed as reduction in mycelial growth rate at 1 to 10 ug/ml at 28 degC after 8 days; assay type: functional, organism-based
[18] = tested on: Monilinia laxa; assay: Fungicidal activity against Monilinia laxa isolate MLG6 assessed as reduction in mycelial growth rate at 25 degC after 4 days; assay type: functional, organism-based; settings: isolate MLG6, 96 h
[19] = tested on: Monilinia laxa; assay: Fungicidal activity against Monilinia laxa isolate MLAl8 assessed as reduction in mycelial growth rate at 1 to 10 ug/ml at 28 degC after 8 days; assay type: functional, organism-based
[20] = tested on: Monilinia laxa; assay: Fungicidal activity against Monilinia laxa isolate MLC2 assessed as reduction in mycelial growth rate at 25 degC after 4 days; assay type: functional, organism-based; settings: isolate MLC2, 96 h
[21] = tested on: Monilinia laxa; assay: Fungicidal activity against Monilinia laxa isolate MLBO7 assessed as reduction in mycelial growth rate at 25 degC after 4 days; assay type: functional, organism-based; settings: isolate MLBO7, 96 h
[22] = tested on: Monilinia laxa; assay: Fungicidal activity against Monilinia laxa isolate MLBO6 assessed as reduction in mycelial growth rate at 25 degC after 4 days; assay type: functional, organism-based; settings: isolate MLBO6, 96 h
[23] = tested on: Monilinia laxa; assay: Fungicidal activity against Monilinia laxa isolate MLNS2 assessed as reduction in mycelial growth rate at 1 to 10 ug/ml at 25 to 28 degC; assay type: functional, organism-based
[24] = tested on: Monilinia laxa; assay: Fungicidal activity against Monilinia laxa isolate MLNS1 assessed as reduction in mycelial growth rate at 1 to 10 ug/ml at 25 to 28 degC; assay type: functional, organism-based
[25] = tested on: Monilinia laxa; assay: Fungicidal activity against Monilinia laxa isolate MLX5 assessed as reduction in mycelial growth rate at 1 to 10 ug/ml at 25 to 28 degC; assay type: functional, organism-based
[26] = tested on: Monilinia laxa; assay: Fungicidal activity against Monilinia laxa isolate MLK6 assessed as reduction in mycelial growth rate at 1 to 10 ug/ml at 25 to 28 degC; assay type: functional, organism-based
[27] = tested on: Monilinia laxa; assay: Fungicidal activity against Monilinia laxa isolate MLK5 assessed as reduction in mycelial growth rate at 1 to 10 ug/ml at 25 to 28 degC; assay type: functional, organism-based
[28] = tested on: Monilinia laxa; assay: Fungicidal activity against Monilinia laxa isolate MLKS1 assessed as reduction in mycelial growth rate at 25 degC after 4 days; assay type: functional, organism-based; settings: isolate MLKS1, 96 h
[29] = tested on: Monilinia laxa; assay: Fungicidal activity against Monilinia laxa isolate MLP4 assessed as virulence in prune fruits assessed as virulence treated 10 min prior to mycelial inoculation at 24 degC after 10 days relative to isolate MLX1by pathogenicity bioassay; assay type: functional
[30] = tested on: Monilinia laxa; assay: Fungicidal activity against Monilinia laxa isolate MLBO2 assessed as virulence in prune fruits assessed as virulence treated 10 min prior to mycelial inoculation at 24 degC after 10 days relative to isolate MLX1by pathogenicity bioassay; assay type: functional
[31] = tested on: Monilinia laxa; assay: Fungicidal activity against Monilinia laxa isolate MLX1 assessed as mean number of conidia produced in the colony at 25 degC after 12 days by haemocytometer; assay type: functional
[32] = tested on: Monilinia laxa; assay: Fungicidal activity against Monilinia laxa isolate MLA1 assessed as reduction in mycelial growth rate at 1 to 10 ug/ml at 31 degC after 5 days; assay type: functional, organism-based
[33] = tested on: Monilinia laxa; assay: Fungicidal activity against Monilinia laxa isolate MLX5 assessed as reduction in mycelial growth rate at 1 to 10 ug/ml at 31 degC after 5 days; assay type: functional, organism-based
[34] = tested on: Monilinia laxa; assay: Fungicidal activity against Monilinia laxa isolate MLX3 assessed as reduction in mycelial growth rate at 1 to 10 ug/ml at 31 degC after 5 days; assay type: functional, organism-based
[35] = tested on: Monilinia laxa; assay: Fungicidal activity against Monilinia laxa isolate KX3 assessed as reduction in mycelial growth rate at 25 degC after 4 days; assay type: functional, organism-based; settings: isolate KX3, 96 h
[36] = tested on: Monilinia laxa; assay: Fungicidal activity against Monilinia laxa isolate MLNS2 assessed as reduction in mycelial growth rate at 25 degC after 4 days; assay type: functional, organism-based; settings: isolate MLNS2, 96 h
[37] = tested on: Monilinia laxa; assay: Fungicidal activity against Monilinia laxa isolate MLX3 assessed as reduction in mycelial growth rate at 25 degC after 4 days; assay type: functional, organism-based; settings: isolate MLX3, 96 h
[38] = tested on: Monilinia laxa; assay: Fungicidal activity against Monilinia laxa isolate MLK9 assessed as reduction in mycelial growth rate at 25 degC after 4 days; assay type: functional, organism-based; settings: isolate MLK9, 96 h
[39] = tested on: Monilinia laxa; assay: Fungicidal activity against Monilinia laxa isolate MLK7 assessed as reduction in mycelial growth rate at 25 degC after 4 days; assay type: functional, organism-based; settings: isolate MLK7, 96 h
[40] = tested on: Monilinia laxa; assay: Fungicidal activity against Monilinia laxa isolate MLK6 assessed as reduction in mycelial growth rate at 25 degC after 4 days; assay type: functional, organism-based; settings: isolate MLK6, 96 h
[41] = tested on: Monilinia laxa; assay: Fungicidal activity against Monilinia laxa isolate MLKS2 assessed as reduction in mycelial growth rate at 25 degC after 4 days; assay type: functional, organism-based; settings: isolate MLKS2, 96 h

`COC(=O)Nc1nc2ccccc2[nH]1` [CARBENDAZIM] was tested. Which EC50 [1] did it give?
Its EC50 is greater than 50 mg/L.

What about the inhibition [2] of the same compound?
The inhibition was “Active”.

And the inhibition [3]?
The inhibition was “Active”.

What about the inhibition [4] of the same compound?
The inhibition was “Active”.

And the inhibition [5]?
Its inhibition is “Active”.

And the inhibition [6]?
The inhibition was “Active”.

What about the inhibition [7] of the same compound?
Its inhibition is “Active”.

What about the inhibition [8] of the same compound?
The inhibition was “Active”.

What about the inhibition [9] of the same compound?
Its inhibition is “Active”.

What about the inhibition [10] of the same compound?
The inhibition was “Active”.

What about the inhibition [11] of the same compound?
The inhibition was “Active”.

And the Activity [12]?
The Activity was 4.4 /cm2.

What about the Activity [13] of the same compound?
Its Activity is 29.5 mm.

And the Activity [14]?
Its Activity is 99.9%.

What about the inhibition [15] of the same compound?
Its inhibition is “inactive”.

And the inhibition [16]?
The inhibition was “inactive”.

What about the inhibition [17] of the same compound?
Its inhibition is “inactive”.

And the EC50 [18]?
Its EC50 is 0.12 mg/L (≈ 0.628 µM).

And the inhibition [19]?
The inhibition was “inactive”.

And the EC50 [20]?
The EC50 was greater than 50 mg/L.

What about the EC50 [21] of the same compound?
The EC50 was 0.1 mg/L (≈ 0.523 µM).

And the EC50 [22]?
Its EC50 is 0.12 mg/L (≈ 0.628 µM).

And the inhibition [23]?
The inhibition was “inactive”.

What about the inhibition [24] of the same compound?
The inhibition was “inactive”.

And the inhibition [25]?
Its inhibition is “inactive”.

And the inhibition [26]?
The inhibition was “inactive”.

And the inhibition [27]?
Its inhibition is “inactive”.

What about the EC50 [28] of the same compound?
Its EC50 is 0.11 mg/L (≈ 0.575 µM).

And the Activity [29]?
The Activity was 100%.

And the Activity [30]?
Its Activity is 95%.

What about the Activity [31] of the same compound?
Its Activity is 4 /cm2.

And the inhibition [32]?
Its inhibition is “Active”.

What about the inhibition [33] of the same compound?
The inhibition was “Active”.

What about the inhibition [34] of the same compound?
Its inhibition is “Active”.

What about the EC50 [35] of the same compound?
Its EC50 is 0.09 mg/L (≈ 0.471 µM).

What about the EC50 [36] of the same compound?
The EC50 was greater than 50 mg/L.

And the EC50 [37]?
The EC50 was greater than 50 mg/L.

What about the EC50 [38] of the same compound?
Its EC50 is 0.08 mg/L (≈ 0.418 µM).

And the EC50 [39]?
Its EC50 is 0.08 mg/L (≈ 0.418 µM).

What about the EC50 [40] of the same compound?
Its EC50 is greater than 50 mg/L.

What about the EC50 [41] of the same compound?
Its EC50 is 0.01 mg/L (≈ 0.0523 µM).
